Source: patent US20120258938A1, “Enzymatic Production or Chemical Synthesis and Uses for 5,7-Dienes and UVB Conversion Products Thereof” (priority 2008, published 2012)

Tests used:
[1] = tested on: human dermal fibroblast line; assay: TGF-b1 induced hyaluronan synthesis by dermal fibroblasts; format: cell-based; details: hrTGF-b1 5 ng/ml, secosteroids at 10^−10M
From the text: There were found no significant differences in fibroblast numbers per well and no significant differences in trypan blue exclusion between control wells vs those with secosteroids range 95-100% (data not shown).

Human dermal fibroblasts = assay: TGF-b1 induced collagen protein production by dermal fibroblasts; format: cell-based; details: collagenase sensitive protein; for Collagen CPM/Well (mean ± SEM) × 10^−5 FB: hrTGF-b1 5 ng/ml, secosteroids at 10^−10M, 3[H]-proline
Description: Human dermal fibroblasts grown from explant skin cultures at less than 10 subpassages were plated at 5×10^4 cells per well in 24 well Costar tissue culture plates and were grown to confluency. Complete MEM was then changed to serum free Complete MEM without non-essential amino acids. After 24 hours, culture medium was changed (450 μl/well) to the same and secosteroids listed in Table 14 were added in 10 μl absolute alcohol (ETOH) to a final concentration of 10^−9 and M, 3 replicate wells each. Vehicle control wells (n=6) contained 10 μl (ETOH). After 2 hour pre-incubation, hr TGF-b1 (R and D systems) was added to each well except ETOH wells at a final concentration of 5 ng/ml. After 48 hours of culture, plate wells were paused with 1μ Cl ^3[H]-proline. After 24 hours, culture supernatants were harvested and collagenase sensitive protein was determined as previously described (44).

[2] = tested on: SK Mel 188 human melanoma cells; assay: Soft agar colony formation, SKMEL 188 melanoma; format: cell-based; details: for colony formation in soft agar versus vehicle control: SKMEL 188, 10 nM
Description: Growth and survival of prostate cancer cells (PC3) and melanoma cells SKMEL 188 and AbC1 was determined by following their ability to form colonies in soft agar. Cells growing in monolayer culture were trypsinized and resuspended (1,000 cells/well) in 0.25 ml medium containing 0.4% agarose and 5% charcoal stripped serum (HyClone).
Cell suspensions were added to 0.8% agar layer in 24 well plates. […] Each condition was tested in quadruplicate. An ethanol solvent control (amount of ethanol equivalent to test) as well as a media-only control was included in the assay. Cells were allowed to grow at 37° with 5% CO2 over two weeks with secosteroids in fresh media (100 μL) being added after every 72 h. Soft agar colonies were scored and stained with 0.5 mg/ml MTT reagent (Promega), 500 μL/well after two weeks. Colonies were then counted under the microscope and number of units was calculated as number of colonies formed divided by the number of cells seeded×100.

cytochrome P450scc = biological target: T1, cytochrome P450scc (Bos taurus, UniProt P00189); assay: Metabolism by cytochrome P450scc in cyclodextrin
T1 sequence (P00189 40-520): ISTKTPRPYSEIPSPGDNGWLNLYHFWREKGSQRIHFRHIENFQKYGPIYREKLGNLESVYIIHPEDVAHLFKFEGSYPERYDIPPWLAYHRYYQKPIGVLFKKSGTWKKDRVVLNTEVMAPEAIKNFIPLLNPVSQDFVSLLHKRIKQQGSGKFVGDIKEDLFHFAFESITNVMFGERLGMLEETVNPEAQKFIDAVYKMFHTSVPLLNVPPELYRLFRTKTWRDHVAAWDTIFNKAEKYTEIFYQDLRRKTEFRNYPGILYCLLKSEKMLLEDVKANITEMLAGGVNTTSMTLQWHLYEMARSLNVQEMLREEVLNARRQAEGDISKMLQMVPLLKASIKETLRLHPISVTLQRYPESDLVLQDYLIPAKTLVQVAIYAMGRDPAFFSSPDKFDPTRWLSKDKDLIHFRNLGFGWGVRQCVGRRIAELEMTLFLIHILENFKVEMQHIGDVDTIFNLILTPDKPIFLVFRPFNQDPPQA
Description: Adrenodoxin was expressed in Escherichia coli and purified as described before (41). […] Metabolites were analysed using a Perkin Elmer HPLC equipped with a C18 column (Brownlee Aquapore, 22 cm×4.6 mm, particle size 7 μm).

HaCaT keratinocytes = assay: [3H]-thymidine DNA synthesis in HaCaT keratinocytes; format: cell-based, human; details: HaCaT
Description: HaCaT keratinocytes were plated in 96-well plates at the density of 10,000 cells/well in DMEM (Cellgro, Herndon Va.) containing 5% charcoal treated fetal bovine serum (Hyclone, Logan, Utah), 1% antibiotic solution (PSA, Sigma, St. Louis, […].). Next day, media were changed and vehicle (ethanol) or secosteroids added. Cells were incubated with compounds for 48 hours. [^3H]-thymidine (Amersham Biosciences, Picataway, N.Y.) was added to the final concentration of 1 μCi/mL medium for last 12 hours of incubation. Media were then discarded, cells detached with trypsin and harvested on a glass fiber filter (Packard, Meriden, Calif.). Radioactivity was measured with a beta counter (Direct Beta-Counter Matrix 9600; Packard).
To measure DNA synthesis, keratinocytes, melanoma or prostate cancer cells were plated in 96-well plates. After overnight incubation tested compounds were added to the medium to achieve final concentrations 10^−7-10^−10 [M]. 100 μl of medium per well containing vitamin D3 compound was added to the cells. After 36 hours of incubation [3H]-thymidine (specific activity 88.0 Ci/mmol; Amersham Biosciences, Picataway, N.Y., USA) was added at 1 μCi/mL medium. After 12 hours, media were discarded, cells detached with trypsin and harvested on a glass fiber filter (Packard, Meriden, Calif., USA). 3H-radioactivity was measured with a beta counter (Direct Beta-Counter Matrix 9600; Packard).
HaCaT keratinocytes were plated out in 24-well plates, 50,000 cells/well. […] After 4 h media were discarded, cells washed with cold phosphate-buffered saline and incubated in 10% trichloroacetic acid for 30 min. Cells were washed again with phosphate-buffered saline, 100 μl 1.0 M NaOH was added to each well and plates incubated for 30 min at 30° C. The supernatant was collected and the ^3H-radioactivity measured by scintillation counting using a Direct Beta-Counter Matrix 9600 (Packard). The [^3H]-thymidine incorporation into DNA was measured separately for each well and the results entered into the calculation as the mean of 6 wells for each condition in a series of six experiments (n=36). Data were analyzed with GraphPad Prizm Version 4.0 (GraphPad Software Inc., San Diego, Calif., USA) using t tests. Differences were considered significant when p<0.05.

1,25 (OH)2 D3 was tested, and the “Hyaluronan CPM/Well (mean ± SEM) × 10^−5 FB” value [1] was 297 ± 18 CPM/Well × 10^−5 FB and the “Collagen CPM/Well (mean ± SEM) × 10^−5 FB” value (Human dermal fibroblasts) was 310 ± 100 CPM/Well × 10^−5 FB.
For `C=C1C(=CC=C2CCCC3(C)C2CCC3C(C)(O)CCC(O)C(C)C)CC(O)CC1O` (stereo not drawn) [1,20,24(OH)2D3, (5Z,7E)-9,10-secocholesta-5,7,10(19)-triene-1α,3β,20,24-tetrol], the “colony formation in soft agar versus vehicle control” value [2] was “greatly inhibited colony formation”.
In the case of `C=C1C(=CC=C2CCCC3(C)C2CCC3C(C)(O)CCCC(C)(C)O)CC(O)CC1O` (stereo not shown) [1,20,25(OH)2D3, 1,20,25-trihydroxycholecalciferol], the “colony formation in soft agar versus vehicle control” value [2] is reported as “greatly inhibited colony formation”.
Compound `C=C1/C(=C\C=C2/CCC[C@]3(C)[C@@H]([C@H](C)CCCC(C)C)CC[C@@H]23)C[C@@H](O)C[C@@H]1O` [1α-hydroxycholecalciferol, (5Z,7E)-9,10-secocholesta-5,7,10(19)-triene-1α,3β-diol] has a Km (cytochrome P450scc) of 41 ± 6 µM and a kcat (cytochrome P450scc; substrate in 0.45% cyclodextrin) of 1.3±0.1 mol/min/mol P450scc.
`CC(O)C1(O)CCC2C3=CC=C4CC(O)CCC4(C)C3CCC21C` (stereo not shown) [17,20 R(OH)27DHP] was tested, and the “Hyaluronan CPM/Well (mean ± SEM) × 10^−5 FB” value [1] was 607 ± 127 CPM/Well × 10^−5 FB and the “Collagen CPM/Well (mean ± SEM) × 10^−5 FB” value (Human dermal fibroblasts) was 173 ± 11 CPM/Well × 10^−5 FB.
For `CC(O)C1(O)CCC2C3=CC=C4CC(O)CCC4(C)C3CCC21C` (stereo not shown) [17,20 S(OH)27DHP], the “Hyaluronan CPM/Well (mean ± SEM) × 10^−5 FB” value [1] was 227 ± 53 CPM/Well × 10^−5 FB and the “Collagen CPM/Well (mean ± SEM) × 10^−5 FB” value (Human dermal fibroblasts) was 213 ± 17 CPM/Well × 10^−5 FB.
For `CC(O)C1(O)CCC2C3=CC=C4CC(O)CCC4(C)C3CCC21C` (stereo not shown) [17,20(OH)27DHP], the “TGF-b1 induced collagen protein production” value (Human dermal fibroblasts; [3H]-proline) was “inhibited TGF-b1 induced collagen protein production”.
With `C[C@]12CC[C@H]3C(=CC=C4C[C@@H](O)CC[C@@]43C)[C@@H]1CC[C@@H]2C(=O)O` [17-COOH, (5Z,7E)-3β-hydroxy-androsta-5,7-diene-17β-carboxylic acid] the DNA synthesis (HaCaT keratinocytes; 72 hrs, 0.01-100 nM) was “DNA synthesis was inhibited at all concentrations”.
For `C=C1CCC(O)CC1=CC=C1CCCC2(C)C1CCC2(O)C(C)(O)CC(O)CC(C)C` (stereo not drawn) [17α,20,23-trihydroxycholecalciferol, (5Z,7E)-9,10-secocholesta-5,7,10(19)-triene-3β,17α,20,23-tetrol], the “keratinocyte proliferation compared with 1α,25-dihydroxycholecalciferol” value (HaCaT keratinocytes; 48 h) was “inhibit keratinocyte proliferation more potently than the control compound”.
For `C=C1CCC(O)CC1=CC=C1CCCC2(C)C1CCC2C(C)(O)CCC(O)C(C)C` (stereo not drawn) [20,24(OH)2D3, (5Z,7E)-9,10-secocholesta-5,7,10(19)-triene-3β,20,24-triol], the “colony formation in soft agar versus vehicle control” value [2] was “greatly inhibited colony formation”.
In the case of `C=C1CCC(O)CC1=CC=C1CCCC2(C)C1CCC2C(C)(O)CCCC(C)(C)O` (stereo not drawn) [20,25(OH)2D3, (5Z,7E)-9,10-secocholesta-5,7,10(19)-triene-3β,20,25-triol], the “colony formation in soft agar versus vehicle control” value [2] is reported as “greatly inhibited colony formation”.
With `C=C1CCC(O)CC1=CC=C1CCCC2(C)C1CCC2C(C)(O)CCCC(C)CO` (stereo not drawn) [20,26(OH)2D3, (5Z,7E)-9,10-secocholesta-5,7,10(19)-triene-3β,20,26-triol] the “colony formation in soft agar versus vehicle control” value [2] was “greatly inhibited colony formation”.
`CC(=O)[C@H]1CC[C@H]2C3=CC=C4C[C@@H](O)CC[C@]4(C)[C@H]3CC[C@]12C` [compound 1, 3β-hydroxypregna-5,7-dien-20-one] was tested, and the “Hyaluronan CPM/Well (mean ± SEM) × 10^−5 FB” value [1] was 230 ± 34 CPM/Well × 10^−5 FB and the “Collagen CPM/Well (mean ± SEM) × 10^−5 FB” value (Human dermal fibroblasts) was 292 ± 31 CPM/Well × 10^−5 FB.
“(5Z,7E)-9,10-secoandrosta-5,7,10(19)-trien-3β-ol [aD3]” was tested, and the “colony formation on soft agar” value ([2]; SKMEL-188, dose dependent) was “suppress colony formation on soft agar”.
